“Also recorded” adds a separate entry of the source.
What was measured:
Format in all cases: in vivo, rat
[1] = Assay B: aldosterone infusion model, systolic blood pressure by radio-telemetry; conditions: uni-nephrectomized Sprague Dawley rats, 1% NaCl, aldosterone 0.75 mg/hr sc, 4 weeks, eplerenone 100 mpk p.o
Protocol: Assay B: In Vivo Aldosterone Infusion Model
Male Sprague Dawley rats (n=39; BW=250 g)
Uni-nephrectomy performed during implantation of mini-pumps
2. Aldosterone (0.75 mg/hr, sc via alzet minipump)
1. Aldosterone (0. 75 mg/hr, sc via alzet minipump)+0.6% KCl in the drinking fluid
Groups 1, 2 and 3 received only 0.3% KCl in the drinking solution
SBP measured by radio-telemetry probes inserted in the abdominal aorta

Collagen I = assay: Assay C: Collagen I mRNA, TaqMan; conditions: 30 days, compared to vehicle+salt controls
Protocol: (§1) The procedure of Assay B was expanded upon in a further study. […] Myocardial tissue from animals in each treatment group was examined after 7, 14, or 30 days of treatment.
(§2) Potassium chloride supplementation was added to the saline solution in order to prevent the potential hypokalemia associated with aldosterone excess.
(§3) Treatment At the time of the surgery, an Alzet 2002 osmotic minipump (Alza Corp., Palo Alto, Calif.) containing either vehicle (9% ethanol/87% propylene glycol/4% dH2O) or 1.0 mg/mL d-aldosterone (Sigma Chemical, St. Louis, Mo.) was inserted subcutaneously at the nape of the neck. Aldosterone was administered at a dose of 0.75 µg/hour. […]
(§4) The fluorogenic 5′-nuclease assay (TaqMan PCR) using Applied Biosystems' 7700 Sequence Detection System (Applied Biosystems, Foster City, Calif.) allowed for real time detection/quantitation of a specific gene by monitoring the increase in fluorescence of a gene-specific, dye-labeled oligonucleotide probe. […] When the probe was annealed to the target gene, fluorescence of 6FAM was prevented by the close proximity of TAMRA. The exonuclease activity of Taq polymerase released the dyes from the oligonucleotide probe by displacing the probe from the target sequence resulting in fluorescence excitation in direct proportion to the amount of target message present. […]

[2] = Assay A: angiotensin II infusion model, heart histology (hematoxylin&eosin), vascular inflammation and myocardial injury; conditions: Wistar rats, 1% NaCl, angiotensin II 25 ng/min sc, 4 weeks, 10/group; eplerenone 100 mpk; aldosterone replacement in adrenalectomized rats
Excerpt: Assay A: In Vivo Angiotensin II Infusion Model
Male Wistar rats (n=50, 10/group; BW=200 g)
Sacrifice by exanguination after 4 weeks. Blood was be collected in dry tubes for determination of serum electrolytes and in EDTA-containing tubes for measurement of aldosterone and corticosterone levels
Hearts were stained with hematoxylin&eosin and have been analyzed for determination of morphologic abnormalities (i.e. necrosis, vascular injury).

COX-2 = assay: Assay C: COX-2 mRNA, TaqMan; conditions: 7, 14, 30 days; aldosterone+salt alone or with eplerenone 100 mg/kg/day
Protocol: as §1, §2, §3, §4

SMILES | Systolic blood pressure [1] | Collagen type-I message (Collagen I) | Vascular inflammatory lesions in the coronary arteries / heart [2] | COX-2 mRNA expression in myocardium (COX-2) | Systolic blood pressure ([1]; listed as Eplerenone)
C[C@]12CCC(=O)C=C1CC[C@@H]1[C@@H]2[C@@H](O)C[C@]2(C=O)[C@@H](C(=O)CO)CC[C@@H]12 [aldosterone] | increased; also recorded: systolic blood pressure elevation | modest increase | restored the severe coronary and myocardial inflammation and injury | significantly increased | –
COC(=O)[C@@H]1CC2=CC(=O)CC[C@]2(C)[C@@]23O[C@@H]2C[C@@]2(C)[C@@H](CC[C@@]24CCC(=O)O4)[C@H]13 [eplerenone] | depression of this elevation | modest increase | prevention by eplerenone (epoxymexrenone) of vascular inflammation; also recorded: one of the ten | inhibition of early time-course expression of myocardial COX-2; also recorded: significantly reduced | significantly reduced, but did not normalize blood pressure

Source: US20040037806A1, “Aldosterone blocker therapy to prevent or treat inflammation-related disorders” (Pharmacia Corporation, priority 2002, published 2004)
